Data from patent publication US8470745B2, “Methods and compositions for obtaining and using biologically active multi-protein complexes” (priority 2006, dated 2013).

Tests used:
GABAA receptor complexes = test: Tyrosine phosphorylation in isolated GABAA receptor complexes (Western blotting); assay type: biochemical; details: Five mM SOV, 30° C. for 1 hour, hippocampus tissue, vs control
Protocol: To test the effect of PTP inhibitor SOV on isolated GABA receptor complexes, hippocampus tissue was removed and homogenized with the solubilization/immunoprecipitation buffer described above. GABAA receptor complexes were immunoprecipitated using anti-β2/β3 antibody (Upstate Biotechnology, Lake Placid, N.Y., USA) as described in Example 1. The immobilized complexes were rinsed and solubilization/immunoprecipitation buffer was replaced with reaction buffer. This reaction buffer was added to all the wells. Control wells contained only the reaction buffer or reaction buffer and ATP alone. Five mM of SOV was added to the rest of the wells and incubated at 30° C. for 1 hour. The reaction was stopped with a blocking buffer and samples rinsed and subjected to Western blotting with anti-pTyr and anti-β2/β3 antibodies.

[1] = system: α-7nACh receptor complexes; test: Tyrosine phosphorylation in isolated α-7nACh receptor complexes (Western blotting); assay type: biochemical; details: Five mM SOV, 30° C. for 1 hour, hippocampus tissue, vs control
Protocol: To test the effect of PTP inhibitor SOV on isolated a-7nACh receptor complexes, hippocampus tissue was dissected from the brain and homogenized with the solubilization/immunoprecipitation buffer described above, with some modifications. The solubilization buffer contained 0.05% TritonX-100 instead of 0.1% as used in Example 1. Immobilized complexes were rinsed and solubilization/immunoprecipitation buffer was replaced with reaction buffer. This reaction buffer was added to all the wells. Control wells contained only the reaction buffer or reaction buffer and ATP alone. Five mM SOV was added to rest of the wells and incubated at 30° C. for 1 hour. The reaction was stopped with a blocking buffer and samples rinsed and subjected to Western blotting with anti-pTyr, anti-α7 antibodies.

[2] = system: HCN4 ion channel complexes; test: Tyrosine phosphorylation in isolated HCN4 ion channel complexes; assay type: biochemical; details: Five mM SOV, 30° C. for 1 hour; rat ventricles; vs control
Protocol: To test the effect of PTP inhibitor SOV, rat ventricles were dissected and homogenized in solubilization/immunoprecipitation buffer and subjected to co-immunoprecipitation by incubation with anti-HCN4 polyclonal antibody (Alpha Diagnostic International, San Antonio, Tex.), as described in Example 1. Immobilized complexes were rinsed and solubilization/immunoprecipitation buffer was replaced with reaction buffer. This reaction buffer was added to all the wells. Control wells contained only the reaction buffer or reaction buffer and ATP alone. Five mM SOV was added to rest of the wells and incubated at 30° C. for 1 hour. The reaction was stopped with blocking buffer and samples were rinsed and subjected to Western blotting or fluorescence analysis using anti-pTyr and anti-HCN4 antibodies.

NMDAR complexes = test: Activity test on immobilized NMDAR complexes (immunoblotting and immunofluorescence detection); assay type: biochemical, rat; details: Five mM SOV, 30° C. for 1 hour, vs control
Protocol: Experiments were performed on cortical tissue obtained from 3 week-old Sprague-Dawley rats. All procedures were conducted in strict adherence with the NIH Guide for the Care and Use of Laboratory Animals. Cortical tissue from 21 day-old rats was solubilized using a syringe in solubilization/immunoprecipitation buffer containing 0.1% Triton X-100, 0.2% β-mercaptoethanol, 50 mM Tris-HCl pH 7.5, 5 mM EDTA, 5 mM EGTA, 10 mg/ml of Sigma protease inhibitor cocktail, 1 mM phenylmethylsulfonyl fluoride. The tissue homogenate was centrifuged (15,000 g for 10 min at 4° C.) to remove insoluble material. The supernatantusprenat was kept at 4° C. and used later for immunoprecipitation. Protein A/G pre-coated 96-well plates (Pierce Biotechnology, Rockford, Ill.) were used for immunoprecipitation of active NMDA receptor complexes. The plates were washed with the solubilization/immunoprecipitation buffer and anti-NR1 antibody (20 μg) was added to each well in 100 μL of extraction buffer. Following a 2 hour incubation at room temperature, the wells were rinsed 3 times with solubilization/immunoprecipitation buffer and 100 μL of supernatant were added to each well. Following 4 hours incubation at 4° C., the wells were washed three times with a reaction buffer containing: 0.2% β-mercaptoethanol, 25 mM Tris-HCl pH 7.5, 30 mM MgCl2, 20 mM MnCl2, 0.5 mM DTT.
Fifty μL of reaction buffer, 500 μM ATP, and the agents to be tested were added to each well. The control wells contained 50 μL of reaction buffer alone or in the presence 500 μM ATP. All samples were incubated at 30° C. for 1 hour. […]
For fluorescence detection experiments, black 96-well plates were used to avoid fluorescence spill over. […] Multi-well plates were read on a Cytofluor 2350 fluorescence plate reader using the appropriate filters. […]

[3] = immunoblotting and immunofluorescence

[Na+].[Na+].[Na+].[O]=[V]([O-])([O-])[O-] [SOV, sodium orthovanadate]
decreased: amount of NR2A/B in the receptor (ratio NR2A/B to NR1) (NMDAR complexes; [3]) | amount of PSD-95 in the receptor (ratio PSD-95 to NR1) (NMDAR complexes)
increased: tyrosine phosphorylation of β2/β3 subunits (ratio of pTyr to β2/β3) (GABAA receptor complexes) | tyrosine phosphorylation of α-7 subunits in the receptor (FIG. 5: ratio of pTyr to α-7) [1] | tyrosine phosphorylation of HCN4 subunits (ratio of pTyr to HCN4) [2] | tyrosine phosphorylation of NR2A/B subunits (ratio of pTyr to NR2A/B) (NMDAR complexes; [3])
